# Measurements: patent EP3095787A1, “[…] ACTIVE COMPOUNDS AS DAG-LIPASE INHIBITORS” (Universiteit Leiden, priority 2015, dated 2016)
# Entries after “also recorded” stand apart in the source; their conditions may differ.
# What was measured:
# serine hydrolases = assay: Chemoproteomics with THL-biotin (MB108) and FP-biotin in mouse brain membrane proteome: other serine hydrolases; format: biochemical; conditions: 10 µM, 30 min
# Protocol: Since, the human serine hydrolase family contains approximately 200 family members, the selectivity in brain proteome was examined in a broader and more detailed manner. […] Mouse brain proteome (500 μL, 2.0 mg/mL) membrane or soluble fraction was incubated with vehicle (DMSO) or inhibitor (10 μM) in DMSO for 30 minutes at rt. The proteome was labeled with MB108 (2.5 μM, 30 minutes, rt) or FP-Biotin (5 μM, 30 minutes, 37 °C). Subsequently the labeling reaction was quenched and excess probe was removed by chloroform methanol precipitation. Precipitated proteome was suspended in 500 μL 6M Urea/25 mM ammonium bicarbonate and allowed to incubate for 15 minutes. 5 μL (1 M DTT) was added and the mixture was heated to 65 °C for 15 minutes. […] The sample was diluted with 6 mL PBS. 100 μL of 50% slurry of Avidin-Agarose from egg white (Sigma-Aldrich) was washed with PBS and added to the proteome sample. The beads were incubated with the proteome > 2h. The beads were isolated by centrifugation and washed with 0.5% (wt/vol) SDS and PBS (3x). […] Tryptic peptides were analyzed on a Surveyor nanoLC system (Thermo) hyphenated to a LTQ-Orbitrap mass spectrometer (Thermo). […] Fragmented precursor ions that were measured twice within 10 s were dynamically excluded for 60 s and ions with z < 2 or unassigned were not analyzed. […]
# DAGL-α = target: T1, DAGL-α (Mus musculus, UniProt Q6WQJ1); assay: Competitive ABPP with MB064 on endogenous DAGL-α in mouse brain membrane proteome; format: biochemical; conditions: MB064 250 nM, n=3, read-out: pIC50 of DAGL-α labeling by MB064 (converted)
# T1 construct: endogenously expressed DAGL-α in mouse membrane proteome; from tissue; host or cells: mouse brain membrane proteome
# T1 sequence (Q6WQJ1 1-1044): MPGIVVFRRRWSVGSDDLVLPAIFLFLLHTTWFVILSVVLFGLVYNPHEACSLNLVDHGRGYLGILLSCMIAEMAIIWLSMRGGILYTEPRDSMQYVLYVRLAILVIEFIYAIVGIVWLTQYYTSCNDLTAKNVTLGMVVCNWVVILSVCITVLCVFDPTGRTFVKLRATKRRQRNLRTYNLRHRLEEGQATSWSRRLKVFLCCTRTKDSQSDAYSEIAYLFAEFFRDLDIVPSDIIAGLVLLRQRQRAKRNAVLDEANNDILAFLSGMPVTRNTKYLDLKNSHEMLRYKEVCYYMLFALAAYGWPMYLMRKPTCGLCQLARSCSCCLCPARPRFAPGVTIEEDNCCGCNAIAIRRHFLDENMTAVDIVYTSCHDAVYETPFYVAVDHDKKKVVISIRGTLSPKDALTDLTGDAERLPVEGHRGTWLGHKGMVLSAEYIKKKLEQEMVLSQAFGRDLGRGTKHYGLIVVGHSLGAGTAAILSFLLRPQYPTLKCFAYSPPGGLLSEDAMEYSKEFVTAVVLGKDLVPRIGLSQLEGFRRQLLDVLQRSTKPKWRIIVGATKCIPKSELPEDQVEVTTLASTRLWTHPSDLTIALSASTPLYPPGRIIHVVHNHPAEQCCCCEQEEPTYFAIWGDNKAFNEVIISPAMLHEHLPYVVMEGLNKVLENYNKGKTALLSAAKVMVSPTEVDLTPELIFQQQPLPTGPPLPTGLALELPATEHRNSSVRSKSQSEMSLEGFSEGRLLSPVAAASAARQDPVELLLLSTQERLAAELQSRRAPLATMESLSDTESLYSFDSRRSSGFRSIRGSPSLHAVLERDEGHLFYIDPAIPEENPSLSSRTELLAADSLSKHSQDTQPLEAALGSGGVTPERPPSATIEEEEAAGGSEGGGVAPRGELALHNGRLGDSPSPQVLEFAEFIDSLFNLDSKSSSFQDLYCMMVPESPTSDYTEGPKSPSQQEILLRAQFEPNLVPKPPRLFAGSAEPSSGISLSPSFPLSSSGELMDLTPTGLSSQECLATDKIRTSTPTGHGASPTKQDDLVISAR
# Excerpt: To test its activity on endogenously expressed DAGL-α in mouse membrane proteome, an ABPP assay with MB064, a specific β-lactone-containing probe, which was tailor-made for the detection of DAGL-α activity, was used. An alkyne group was introduced in the prototypical DAGL-inhibitor tetrahydrolipstatin (THL) and conjugated this covalent, irreversible inhibitor via copper-catalyzed click chemistry to a BODIPY-acid as a fluorencent reporter group to yield tailor-made probe MB064.
compound,measurement,setting,value
"Cc1ccc(-c2cnc3nc(C(=O)CCCCCc4ccccc4)oc3c2)cc1 [Compound 25, 1-(6-(p-Tolyl)oxazolo[4,5-b]pyridin-2-yl)-6-phenylhexan-1-one]",labeling of other serine hydrolases,serine hydrolases,no other targets were detected; also recorded: not of any other serine hydrolase identified
same,IC50,DAGL-α,31.6 nM
